From US6346642B1, “Mixed crystals comprising aspartame and aspartame derivative and process for producing the same” (Ajinomoto Co., Inc., priority 1997, dated 2002)
Peptide text beside a SMILES is read from it.

Experiments:
[1] = Properties in quality of sweetness compared to sucrose (inventors' findings)
From the text: It is strong in astringency (astringent taste) and badly-balanced for quality of sweetness as compared to sucrose. On the other hand, with respect to APM, its properties for quality of sweetness is weak in early taste, and strong in later taste, although they are not so bad as those in N-(3,3-dimethylbuty)-APM. Therefore, any one of both compounds has the properties for quality of sweetness which is weak in early taste, and strong in later taste, and thus is out of quality of sweetness, taking into account the fact that sucrose is natural in sweetness.

[2] = relative to sucrose, by weight ratio; cited from earlier work

Compound	early taste (tastes sweet as early as sucrose) ([1]; quality of sweetness)	later taste (tastes sweet later than sucrose) ([1]; quality of sweetness)	quality of sweetness (balance) [1]	astringency (astringent taste) ([1]; quality of sweetness)	sweetening potency [2]
COC(=O)[C@H](Cc1ccccc1)NC(=O)[C@@H](N)CC(=O)O [APM, aspartame] (H-Asp-Phe-OMe)	weak	strong			
COC(=O)[C@H](Cc1ccccc1)NC(=O)[C@H](CC(=O)O)NCCC(C)(C)C [N-(3,3-dimethylbutyl)-APM, N-[N-(3,3-dimethylbutyl)-L-α-aspartyl]-L-phenylalanine methyl ester]	extremely weak	extremely strong	badly-balanced	strong	10,000 times by weight ratio that of
